Patent publication US10392667B2, “Methods and devices for predicting treatment efficacy of fulvestrant in cancer patients” (Medical Prognosis Institute A/S, priority 2013, dated 2019)
Read-outs that look alike come from different tables or passages of the source.

Assays:
NCI60 cell lines = settings: mean over all NCI60 cell lines (FIG. 8); cited from earlier work
early breast cancer = experiment: Trial 223: neoadjuvant anastrozole, response according to RECIST; type: in vivo, human; settings: patients with outcome information
Method: Trial 223 (Smith et al., J. Clin. Oncol., 25:3816-3822, 2007) was a placebo-controlled trial of neoadjuvant anastrozole alone or with gefitinib in early breast cancer. We used pre-treatment samples from patients from arm B and C: anastrozole 1 mg/d for the duration of the 16 week period plus placebo 1 tablet/d orally for 2 weeks. Patients in arm B were followed by gefitinib 250 mg/d orally for 14 weeks whereas patients in arm C continued with placebo for 14 weeks. We received pre-treatment biopsy material from 21 patients in arms B and C with Ki67 measurements after 2 weeks. We received pre-treatment biopsy material from 16 patients in arm C with outcome information according to guidelines set forth in Response Evaluation Criteria in Solid Tumors (RECIST).
The prediction score of the invention (e.g., prediction score for fulvestrant) was tested for the ability to predict response to aromatase inhibition in a small cohort of 21 patients treated with neoadjuvant anastrozole in a similar protocol to that used to test fulvestrant. […] In addition there was no correlation between prediction score and change in Ki67 produced after 2 weeks of anastrozole treatment (N=21, P=0.9).

[1] = tested on: ER-positive, locally advanced breast cancer; experiment: NEWEST Phase II trial: tumor response by 3D ultrasound after 16 weeks of neoadjuvant fulvestrant; type: in vivo, human; settings: for overall response rate (CR+PR): 16 weeks
Method: NEWEST (Neoadjuvant Endocrine Therapy for Women with Estrogen-Sensitive Tumors; 9238IL/0065) was a randomized, open-label, multicenter, Phase II study involving postmenopausal women with newly diagnosed, ER-positive, locally advanced breast cancer who had received no prior breast cancer treatment ([…]). Eligible patients were randomized 1:1 to receive either fulvestrant 500 mg or 250 mg for 16 weeks preceding surgery. Fulvestrant 500 mg was given as two 5 ml intramuscular injections on days 0, 14, 28 and every 28 days thereafter for 16 weeks. Fulvestrant 250 mg was given as one 5 ml injection on days 0, 28 and every 28 days thereafter for 16 weeks (Kuter et al., Breast Cancer Res. Treat., 133:237-246, 2012).
A total of 211 patients were enrolled in NEWEST. Of these, 173 completed the study and 121 met all protocol criteria. Fresh frozen pre-treatment samples with sufficient RNA (100 ng) was available from 44 patients. Two samples were discarded due to array quality, leaving 42 patients. Of these 42 patients, 22 were in the 500 mg treatment group and 20 were in the 250 mg treatment group.
During the 16-week treatment phase, patients underwent clinical breast examination every 4 weeks. Tumor volume was measured by 3D ultrasound at baseline, week 4, and after 16 weeks of treatment before definitive surgery. Tumor response was defined as complete response (CR, disappearance of all lesions), partial response (PR, at least 65% reduction in tumor volume by 3D ultrasound), disease progression (PD, at least 73% increase in tumor volume), or stable disease (SD, neither partial response nor disease progression). The reduction for partial response was in relation to baseline but for progressive disease was in relation to the smallest tumor volume at any preceding assessment. Objective responders were those patients with a complete response or partial response.

Ki67 = settings: after 4 weeks of treatment, patients, cited from earlier work
[2] = 250 mg fulvestrant, patients with array data
[3] = 500 mg fulvestrant for 16 weeks, patients with array data

For CN(C)CCOc1ccc(/C(=C(/CCCl)c2ccccc2)c2ccccc2)cc1 [toremifene], which GI50 (NCI60 cell lines) is on record?
Its GI50 is 13 µM.

With CC/C(=C(\c1ccccc1)c1ccc(OCCN(C)C)cc1)c1ccccc1 [tamoxifen] as the compound, how does the GI50 (NCI60 cell lines) read?
Its GI50 is 4.3 µM.

For CC(C)(C#N)c1cc(Cn2cncn2)cc(C(C)(C)C#N)c1 [anastrozole], which number of nonresponders (early breast cancer) is on record?
The number of nonresponders was “Seven”.

What about the number of responders (early breast cancer) of the same compound?
The number of responders was “Nine”.

Which “overall response rate (CR+PR)” value ([1]; 250 mg fulvestrant, 19 patients with array data) does the source give for C[C@]12CC[C@@H]3c4ccc(O)cc4C[C@@H](CCCCCCCCC[S+]([O-])CCCC(F)(F)C(F)(F)F)[C@H]3[C@@H]1CC[C@@H]2O (stereo partly drawn) [Fulvestrant, fulvestrant] here?
Its value is 26%.

What about the “number of partial responders” value [1, 2] of the same compound?
The value was 5.

What about the “number of patients with stable disease” value [1, 2] of the same compound?
Its value is 13.

And the “number of progressive disease patients” value [1, 2]?
Its value is 1.

What about the “number of non-responders (SD+PD)” value [1, 3] of the same compound?
Its value is 9.

What about the “number of responders (PR)” value [1, 3] of the same compound?
The value was 11.

What about the “overall response rate (CR+PR)” value ([1]; 500 mg fulvestrant) of the same compound?
The value was 50%.

What about the GI50 (NCI60 cell lines) of the same compound?
Its GI50 is 63 µM.

What about the “average reduction in Ki67” value (Ki67; 250 mg dose) of the same compound?
Its value is 47%.

And the “average reduction in Ki67” value (Ki67; 500 mg dose)?
Its value is 79%.

For O=C(c1ccc(OCCN2CCCCC2)cc1)c1c(-c2ccc(O)cc2)sc2cc(O)ccc12 [raloxifene], which GI50 (NCI60 cell lines) is on record?
Its GI50 is 8.4 µM.
